Earlier results as cited in US12239625B2, “Modified release gamma-hydroxybutyrate formulations having improved pharmacokinetics” (Flamel Ireland Limited, priority 2016, dated 2025).
Read-outs that look alike come from different tables or passages of the source.

Tests used:
plasma proteins = details: GHB concentrations 3 mcg/mL to 300 mcg/mL
[1] = single oral dose 25 mg/kg
CYP1A2 = target: T1, CYP1A2 (Homo sapiens, UniProt P05177); details: up to 3 mM (378 mcg/mL)
T1 sequence (P05177 1-516): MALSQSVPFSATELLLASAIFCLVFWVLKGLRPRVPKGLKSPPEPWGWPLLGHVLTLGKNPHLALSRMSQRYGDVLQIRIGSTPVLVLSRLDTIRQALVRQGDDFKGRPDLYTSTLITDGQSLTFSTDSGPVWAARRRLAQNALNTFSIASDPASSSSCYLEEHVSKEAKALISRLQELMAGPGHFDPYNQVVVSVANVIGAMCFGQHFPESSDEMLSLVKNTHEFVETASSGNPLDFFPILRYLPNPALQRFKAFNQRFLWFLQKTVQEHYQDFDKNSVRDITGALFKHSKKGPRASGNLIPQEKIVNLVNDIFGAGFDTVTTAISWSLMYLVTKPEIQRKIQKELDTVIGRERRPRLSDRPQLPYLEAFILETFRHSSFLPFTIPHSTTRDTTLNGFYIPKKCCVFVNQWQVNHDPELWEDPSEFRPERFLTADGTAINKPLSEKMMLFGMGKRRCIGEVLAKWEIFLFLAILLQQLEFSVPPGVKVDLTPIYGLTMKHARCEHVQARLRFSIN

CYP2C9 = CYP2C9 (Homo sapiens, UniProt P11712); details: up to 3 mM (378 mcg/mL)
CYP2C19 = CYP2C19 (Homo sapiens, UniProt P33261); details: up to 3 mM (378 mcg/mL)
CYP2D6 = CYP2D6 (Homo sapiens, UniProt P10635); details: up to 3 mM (378 mcg/mL)
CYP2E1 = CYP2E1 (Homo sapiens, UniProt P05181); details: up to 3 mM (378 mcg/mL)
CYP3A = details: up to 3 mM (378 mcg/mL)
[2] = 6 g per day as two 3 g doses; ibuprofen 800 mg four times per day
patients with narcolepsy = details: estimated dose of 150 g
rats [3] = system: rats
bacterial gene mutation = details: in vitro
mammalian cells = details: in vitro
rat [4] = details: in vivo
male and female rats = details: oral 150, 350, or 1,000 mg/kg/day prior to and throughout mating
rats [5] = system: rats; remark: listed apart in the source
mouse = details: 2-year study
rat [6] = details: 2-year study

Sequence of CYP2C9 (P11712 whole entry): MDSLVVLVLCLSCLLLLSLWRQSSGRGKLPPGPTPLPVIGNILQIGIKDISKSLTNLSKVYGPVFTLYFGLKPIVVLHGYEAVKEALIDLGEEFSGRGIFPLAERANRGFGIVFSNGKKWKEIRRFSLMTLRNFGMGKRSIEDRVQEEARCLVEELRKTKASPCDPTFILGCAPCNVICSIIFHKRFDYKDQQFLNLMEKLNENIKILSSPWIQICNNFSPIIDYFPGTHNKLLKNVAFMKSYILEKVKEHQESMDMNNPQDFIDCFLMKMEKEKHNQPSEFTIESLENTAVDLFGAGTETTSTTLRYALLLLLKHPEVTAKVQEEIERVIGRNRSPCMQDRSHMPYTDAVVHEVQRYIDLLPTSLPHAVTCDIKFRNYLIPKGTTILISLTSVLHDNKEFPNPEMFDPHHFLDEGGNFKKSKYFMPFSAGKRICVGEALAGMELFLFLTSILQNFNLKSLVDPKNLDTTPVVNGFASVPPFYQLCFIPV
Sequence of CYP2E1 (P05181 whole entry): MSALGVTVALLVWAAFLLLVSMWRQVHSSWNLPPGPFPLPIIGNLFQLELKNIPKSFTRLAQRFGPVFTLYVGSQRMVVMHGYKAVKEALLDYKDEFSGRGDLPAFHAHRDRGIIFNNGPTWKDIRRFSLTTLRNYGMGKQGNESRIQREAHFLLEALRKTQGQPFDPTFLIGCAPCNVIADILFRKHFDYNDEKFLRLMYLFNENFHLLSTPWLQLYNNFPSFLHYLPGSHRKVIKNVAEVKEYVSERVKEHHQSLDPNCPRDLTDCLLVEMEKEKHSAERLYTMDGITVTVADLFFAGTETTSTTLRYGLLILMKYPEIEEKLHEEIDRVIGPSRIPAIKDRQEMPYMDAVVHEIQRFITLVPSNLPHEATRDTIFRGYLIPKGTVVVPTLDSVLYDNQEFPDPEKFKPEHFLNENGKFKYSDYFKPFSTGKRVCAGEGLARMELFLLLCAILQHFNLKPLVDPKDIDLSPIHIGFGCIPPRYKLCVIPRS
Sequence of CYP2C19 (P33261 whole entry): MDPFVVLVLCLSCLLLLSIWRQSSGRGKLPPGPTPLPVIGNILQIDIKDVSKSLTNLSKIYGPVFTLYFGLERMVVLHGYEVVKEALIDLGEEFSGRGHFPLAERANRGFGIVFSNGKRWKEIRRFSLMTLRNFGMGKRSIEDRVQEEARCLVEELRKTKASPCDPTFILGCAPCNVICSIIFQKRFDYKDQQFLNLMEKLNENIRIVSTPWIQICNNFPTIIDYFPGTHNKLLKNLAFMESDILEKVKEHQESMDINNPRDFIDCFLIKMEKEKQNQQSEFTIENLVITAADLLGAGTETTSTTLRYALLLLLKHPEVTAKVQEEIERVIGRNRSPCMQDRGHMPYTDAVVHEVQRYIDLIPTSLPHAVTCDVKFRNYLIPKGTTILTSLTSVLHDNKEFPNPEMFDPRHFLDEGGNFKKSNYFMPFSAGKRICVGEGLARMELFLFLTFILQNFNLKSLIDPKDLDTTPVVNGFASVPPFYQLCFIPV
Sequence of CYP2D6 (P10635 whole entry): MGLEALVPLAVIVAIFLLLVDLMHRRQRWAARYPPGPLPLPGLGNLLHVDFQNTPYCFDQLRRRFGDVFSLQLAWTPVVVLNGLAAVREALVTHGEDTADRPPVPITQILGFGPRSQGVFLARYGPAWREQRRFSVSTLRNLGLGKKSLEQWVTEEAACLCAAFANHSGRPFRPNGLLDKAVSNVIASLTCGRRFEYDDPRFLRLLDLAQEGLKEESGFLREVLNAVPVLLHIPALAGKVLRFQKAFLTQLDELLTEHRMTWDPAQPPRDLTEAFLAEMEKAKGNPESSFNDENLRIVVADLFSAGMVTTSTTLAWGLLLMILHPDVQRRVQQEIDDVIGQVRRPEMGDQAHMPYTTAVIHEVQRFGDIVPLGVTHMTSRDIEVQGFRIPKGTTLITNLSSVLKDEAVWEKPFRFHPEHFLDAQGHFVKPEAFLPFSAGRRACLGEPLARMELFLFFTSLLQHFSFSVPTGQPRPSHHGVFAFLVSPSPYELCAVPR

Compound: O=C(O)CCCO [GHB, gamma-hydroxybutyrate]
- Excretion in human milk (after oral administration of sodium oxybate): excreted in human milk
- Apparent volume of distribution (human, in vivo): 0.19 to 0.384 L/kg
- Elimination half-life (human, in vivo): 30 to 60 min
- Unchanged drug in human urine (within 6 to 8 hours after dosing): less than 5%
- Bound to plasma proteins (plasma proteins): less than 1%

Compound: O=C([O-])CCCO.[Na+] [sodium oxybate, sodium 4-hydroxybutyrate]
- Gender differences in the pharmacokinetics of GHB (18 female and 18 male healthy adults, oral dose 4.5 g): no gender differences
- Mean elimination half-life ([1]; Class A): 32 min
- Mean elimination half-life ([1]; Class C): 59 min
- Mean elimination half-life ([1]; control patients): 22 min
- Inhibition of CYP1A2 activity (CYP1A2): does not significantly inhibit
- Inhibition of CYP2C9 activity (CYP2C9): does not significantly inhibit
- Inhibition of CYP2C19 activity (CYP2C19): does not significantly inhibit
- Inhibition of CYP2D6 activity (CYP2D6): does not significantly inhibit
- Inhibition of CYP2E1 activity (CYP2E1): does not significantly inhibit
- Inhibition of CYP3A activity (CYP3A): does not significantly inhibit
- Systemic exposure to GHB on co-administration with ibuprofen [2]: comparable systemic exposure to GHB
- Overdose case (patients with narcolepsy): unresponsive with brief periods of apnea
- Developmental toxicity (pregnant rats; oral 150, 350, or 1,000 mg/kg/day throughout organogenesis): no clear evidence of developmental toxicity
- Highest dose tested as multiple of the MRHD (9 g per night) on mg/m2 basis (pregnant rats; rats): approximately 1 times
- Developmental toxicity (pregnant rabbits; oral 300, 600, or 1,200 mg/kg/day throughout organogenesis): no clear evidence of developmental toxicity
- Highest dose tested as multiple of the MRHD (9 g per night) on mg/m2 basis (pregnant rabbits; rabbits): ~3 times
- Tumors (rats [3]; oral doses up to 1,000 mg/kg/day for 83 (males) or 104 (females) weeks): no increase in tumors
- Plasma exposure (AUC) at the highest dose tested as multiple of that in humans at the MRHD (rats [3]; rats): 2 times
- Bacterial gene mutation (bacterial gene mutation): negative
- Chromosomal aberration (mammalian cells): negative
- Micronucleus (rat [4]): negative
- Effects on fertility (male and female rats): no adverse effects on fertility
- Body weight gain and sexual maturation (rats [5]; at the highest dose tested (900 mg/kg/day)): Reduced body weight gain in males and females and delayed sexual maturation in males
- Mortality (rats [5]; oral 0, 100, 300, or 900 mg/kg/day, postnatal days 21 through 90): mortality was observed at the two highest closes tested

Compound: O=C1CCCO1 [gamma-butyrolactone]
- Carcinogenic activity (mouse): no clear evidence of carcinogenic activity
- Carcinogenic activity (rat [6]): no clear evidence of carcinogenic activity
